Measurements reported in US6087358A (priority 1997, dated 2000).
In brackets after ≈: the same amount, converted by molar mass. Where two headings read alike, the source gives them in different places.

Assays:
[1] = tested on: Mycobacterium tuberculosis (rMTB); experiment: In vivo antimycobacterial activity against M. tuberculosis (rMTB) in lungs of mice; set-up: species or system Mycobacterium tuberculosis Erdman, in female BALB/c mice; settings: 25 mg/kg daily oral gavage, CM-2, 10 days, control 117,258 (PA-824, 636, 1297) or 22,751 (others)
Helicobacter pylori = experiment: In vitro inhibition of Helicobacter pylori (broth microdilution MIC); settings: Helicobacter pylori

O=[N+]([O-])c1cn2c(n1)OC[C@@H](OCc1ccc(OC(F)(F)F)cc1)C2 [PA-824, 3S 4-(Trifluromethoxy)benzyloxy-6-nitro-2H-3,4-dihydro-[2-1b]imidazopyran]
Average RLUs, M. tuberculosis (rMTB) in lungs [1]: 2,496 RLUs | MIC (Helicobacter pylori; 72 h, read-out: MIC against Helicobacter pylori, strain 17 (Table 5A)): > 25 µg/mL | MIC (Helicobacter pylori; 72 h, read-out: MIC against Helicobacter pylori, strain 19 (Table 5A)): 0.4 µg/mL (≈ 1.11 µM) | MIC (Helicobacter pylori; 72 h, read-out: MIC against Helicobacter pylori, strain 20 (Table 5A)): 0.2 µg/mL (≈ 0.557 µM) | MIC (Helicobacter pylori; 72 h, read-out: MIC against Helicobacter pylori, strain 40 (Table 5A)): 0.4 µg/mL (≈ 1.11 µM) | MIC (Helicobacter pylori; 72 h, read-out: MIC against Helicobacter pylori, strain 43 (Table 5A)): 0.8 µg/mL (≈ 2.23 µM) | MIC (Helicobacter pylori; 72 h, read-out: MIC against Helicobacter pylori, strain 76 (Table 5A)): 12.5 µg/mL (≈ 34.8 µM) | MIC (Helicobacter pylori; ATCC43504, 72 h, read-out: MIC against Helicobacter pylori, strain ATCC 43504 (Table 5A)): > 25 µg/mL
